Measured values as given in patent US11236055B2 (Venenum Biodesign, LLC, priority 2016, dated 2022).

What was measured:
[1] = molecular target: T1, mouse TGR5 receptor (Mus musculus, UniProt Q80SS6); assay: Mouse TGR5 cAMP production assay (HTRF, Cisbio cAMP HiRange); format: cell-based; conditions: HEK293-EBNA cells overexpressing mouse TGR5, HTRF cAMP HiRange; coded A-D
T1 construct: expressed in transfected cells; host or cells: HEK293-EBNA (293 c18, ATCC CRL10852), Hygromycin B selection
T1 sequence (Q80SS6 1-329): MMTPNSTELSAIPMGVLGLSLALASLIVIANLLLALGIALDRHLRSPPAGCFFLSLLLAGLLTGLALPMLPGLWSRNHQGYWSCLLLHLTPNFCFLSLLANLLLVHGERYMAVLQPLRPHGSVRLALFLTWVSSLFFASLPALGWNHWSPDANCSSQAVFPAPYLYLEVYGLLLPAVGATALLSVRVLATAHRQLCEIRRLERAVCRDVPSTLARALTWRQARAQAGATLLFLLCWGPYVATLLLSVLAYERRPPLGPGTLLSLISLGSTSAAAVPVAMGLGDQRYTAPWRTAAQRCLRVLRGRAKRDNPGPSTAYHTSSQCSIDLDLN
In short: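 cAMP read by HTRF competition after 1 h room-temperature compound exposure of mouse TGR5-overexpressing HEK293-EBNA cells. Cells were suspended in serum-free DMEM containing 500 μM IBMX; compounds ran as 12-point half-log dilutions in duplicate; EC50 derived.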

[2] = molecular target: T2, human TGR5 receptor (Homo sapiens, UniProt Q8TDU6); assay: Human TGR5 cAMP production assay; format: cell-based; conditions: human TGR5, luminescent cAMP assay; coded A-D; read-out: Human TGR5 Lum. cAMP Activity (EC50)
T2 construct: host or cells: CHO-K1 (hTGR5-CHO cells)
T2 sequence (Q8TDU6 1-330): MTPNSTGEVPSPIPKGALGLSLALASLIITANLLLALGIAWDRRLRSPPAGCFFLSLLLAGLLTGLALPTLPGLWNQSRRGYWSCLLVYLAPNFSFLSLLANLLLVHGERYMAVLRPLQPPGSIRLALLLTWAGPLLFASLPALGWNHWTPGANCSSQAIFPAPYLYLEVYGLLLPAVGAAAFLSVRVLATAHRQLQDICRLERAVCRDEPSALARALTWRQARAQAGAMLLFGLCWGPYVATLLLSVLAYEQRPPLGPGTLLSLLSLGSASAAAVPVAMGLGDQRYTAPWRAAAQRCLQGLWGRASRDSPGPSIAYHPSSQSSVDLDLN
In short: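 Intracellular cAMP read by luminescent enzyme-complementation (XS+) after overnight development, following 1 h room-temperature compound treatment of hTGR5-CHO-K1 cells in IBMX plus anti-cAMP antibody. Compounds tested as half-log dilution series; EC50 derived.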

EC50 [1] | EC50 [2] | SMILES
< 100 nM | < 100 nM | CCc1cnccc1-c1cccc([C@H](C)N(CCCC(=O)NC[C@@H](O)[C@H](O)[C@@H](O)[C@@H](O)CO)S(=O)(=O)c2cccc(Cl)c2C)c1 [Compound 20AN, 4-(3-chloro-N-((S)-1-(3-(3-ethylpyridin-4-yl)phenyl)ethyl)-2-methylphenylsulfonamido)-N-((2R,3S,4S,5S)-2,3,4,5,6-pentahydroxyhexyl)butanamide]
< 100 nM | < 100 nM | CCc1cnccc1-c1cccc(C2CN(C(=O)CCC(=O)O)CCN2S(=O)(=O)c2cccc(Cl)c2C)c1 (racemic) [Compound 46, (+/−) 4-(4-((3-Chloro-2-methylphenyl)sulfonyl)-3-(3-(3-ethylpyridin-4-yl)phenyl)piperazin-1-yl)-4-oxobutanoic acid]
< 100 nM | < 100 nM | Cc1cnccc1-c1cccc([C@H](C)N(CCCCNC(=O)CS(=O)(=O)O)S(=O)(=O)c2ccccc2C(F)(F)F)c1 [Compound 31AA, (S)-2-((4-(N-(1-(3-(3-methylpyridin-4-yl)phenyl)ethyl)-2-(trifluoromethyl)phenylsulfonamido)butyl)amino)-2-oxoethanesulfonic acid]
< 100 nM | < 100 nM | CCc1cnccc1-c1cccc(C(C)(C)NS(=O)(=O)c2ccccc2C(F)(F)F)c1 [Compound 5, N-(2-(3-(3-ethylpyridin-4-yl)phenyl)propan-2-yl)-2-(trifluoromethyl)benzenesulfonamide]
< 100 nM | < 100 nM | CCc1cnccc1-c1cccc([C@H](C)N(CCCC(=O)NCCNS(N)(=O)=O)S(=O)(=O)c2cccc(Cl)c2C)c1 [Compound 37AA, (S)-4-(3-chloro-N-(1-(3-(3-ethylpyridin-4-yl)phenyl)ethyl)-2-methylphenylsulfonamido)-N-(2-(sulfamoylamino)ethyl)butanamide]
< 100 nM | < 100 nM | Cc1cnccc1-c1cccc(C(C)(C)N(CCCC(=O)NC[C@@H](O)[C@H](O)[C@@H](O)[C@@H](O)CO)S(=O)(=O)c2cccc(Cl)c2C)c1 [Compound 20AF, 4-(3-chloro-2-methyl-N-(2-(3-(3-methylpyridin-4-yl)phenyl)propan-2-yl)phenylsulfonamido)-N-((2R,3S,4S,5S)-2,3,4,5,6-pentahydroxyhexyl)butanamide]
< 100 nM | < 100 nM | Cc1cnccc1-c1cccc([C@H](C)N(CCCCNC(=O)[C@@H](N)CS(=O)(=O)O)S(=O)(=O)c2ccccc2C(F)(F)F)c1 [Compound 31AC, (R)-2-amino-3-((4-(N-((S)-1-(3-(3-methylpyridin-4-yl)phenyl)ethyl)-2-(trifluoromethyl)phenylsulfonamido)butyl)amino)-3-oxopropane-1-sulfonic acid]
< 100 nM | < 100 nM | Cc1cnccc1-c1cccc(C(C)(C)N(CCCNC(=O)NCCS(=O)(=O)O)S(=O)(=O)c2cccc(Cl)c2C)c1 [Compound 29AA, 2-(3-(3-((3-Chloro-2-methyl-N-(2-(3-(3-methylpyridin-4-yl)phenyl)propan-2-yl)phenyl)sulfonamide)propyl)ureido)ethane-1-sulfonic acid]
< 100 nM | < 100 nM | CCc1cnccc1-c1cccc([C@H](C)N(CCCC(=O)NCCS(=O)(=O)O)S(=O)(=O)c2ccccc2C(F)(F)F)c1 [Compound 20BF, (S)-2-(4-(N-(1-(3-(3-ethylpyridin-4-yl)phenyl)ethyl)-2-(trifluoromethyl)phenylsulfonamido)butanamido)ethanesulfonic acid]
< 100 nM | < 100 nM | Cc1cnccc1-c1cccc([C@H](C)N(CCCC(=O)NCCS(=O)(=O)NCC(=O)O)S(=O)(=O)c2cccc(Cl)c2C)c1 [Compound 21AN, (S) 2-(3-(4-(3-chloro-2-methyl-N-(1-(3-(3-methylpyridin-4-yl)phenyl)ethyl)phenylsulfonamido)butanamido)ethylsulfonamido)acetic acid]
– | < 100 nM | Cc1cnccc1-c1cccc(C(C)(C)NS(=O)(=O)c2cccc(C(F)(F)F)c2)c1 [Compound 5AA, N-(2-(3-(3-methylpyridin-4-yl)phenyl)propan-2-yl)-3-(trifluoromethyl)benzenesulfonamide]
